From patent publication US9382295B2, “Cyclic depsipeptide compounds and their uses” (Cypralis Limited, priority 2012, dated 2016) come the findings set out here.

Series [1] has as its target cyclophilin D (Cyp D) (Homo sapiens, UniProt P30405). Nature of the series: Protease-free PPIase assay, cyclophilin D. The format is biochemical. As to the method: (§1) The protease-free PPIase assay measures the rate of cis to trans conversion of a peptide substrate catalyzed by the enzymes cyclophilin A and cyclophilin D. Addition of a cyclophilin inhibitor (e.g., a test compound) slows the catalyzed rate and a Ki value is obtained. […] 35 mM HEPES pH 7.8, filtered through a 0.2 μm filter. 50 μM DTT was added prior to use each day and then the buffer was stored on ice. Succinimide-[…]) (from Bachem AG, L-1400), 20 mg/ml prepared in 0.5 M LiCl in trifluoroethanol. All readings were taken with an Agilent 8453 Spectrophotometer which consists of a cuvette holder, stirrer and chiller to maintain a stirred cuvette temperature of 10.0±0.1° C. The temperature is monitored by the use of temperature probe. […] The inhibitor was diluted in 100% DMSO, and then added to the assay to a maximum final concentration of 0.5% DMSO in the assay. A blank spectrum was obtained, then 3 μL of enzyme was added (2 nM final concentration) and then 3 μL substrate (60 μM final concentration) added. The absorbance was measured at 330 nm for 300 s or 500 s for blank runs (NOTE: the substrate must be added in one quick injection and the measurements started immediately to minimize mixing errors). A first order rate equation was fitted to the absorbance data, for each concentration of inhibitor, to obtain the rate constant (the first 10 to 15 seconds were excluded as mixing causes errors in this portion of curve). The catalytic rate was calculated from the enzymatic rate constant minus the background rate constant. An exponential curve was generated using the catalytic rate constants versus the inhibitor concentration to obtain the Ki value for the inhibitor. The Ki value is indicative of the binding affinity between the test compound and cyclophilin A or cyclophilin D.

Series [2] is described as follows: Water solubility assay (pH 7.8 buffer). The format is physicochemical. As to the method:
***Water Solubility Assay (Measured in pH 7.8 Buffer)
The onset of precipitation, if it occurred, was detected by an increase in absorbance at 650 nm.
Assay Buffer: 35 mM HEPES pH 7.8
Stock solutions of Control and Test Compounds: 10 mM in 100% DMSO
10 mM stock solutions of control and test compounds were prepared in 100% DMSO. A series of dilutions were prepared from the stock in DMSO so that the final concentrations in the assay were 0, 3.33, 10, 25, 50, 75 and 100 μM and DMSO was limited to 1%.
Assay buffer (247.5 μl) was placed into flat bottomed transparent 96-well plate. For blank samples DMSO (2.5 μl) was added. For test and control samples 2.5 μl of the appropriate DMSO dilution stocks were added to the appropriate well. All test and control compounds were performed in triplicate.
The plates were sealed with adhesive plate seal and shaken at 250 rpm at 25° C. for 18 h on a plate shaker.
After incubation the plate seals were taken off and any bubbles observed in wells removed. The plates were read on a SpectraMaxM5 with a 5 s pre-shake at 650 nm.
Data files were transferred to the appropriate worksheet and the solubility range of the compounds was calculated from the data.
The values shown in the tables indicate the concentration in μM (micromolar) at which the compound remains in solution.

For series [3], the target named is T1, cyclophilin A (Cyp A) (Homo sapiens, UniProt P62937).
T1 construct: purchased Sigma C3805
The series is described as follows: Protease-free PPIase assay, cyclophilin A. The series is classed as biochemical. As to the method: as §1, with “ice. Human recombinant cyclophilin A (Cyp A) (Sigma C3805) enzyme was diluted to 1 μM with enzyme dilution buffer (20 mM HEPES pH 7.8, 40% glycerol, 50 μM DTT and 1 μM BSA) and stored at -20° C.” for “ice.”

Where [4] appears, read: protease-free PPIase assay, class symbols, read-out: CypD Ki.
Setting [5] is: 35 mM HEPES buffer, 35 mM HEPES pH 7.8, 1% DMSO, 25° C., 18 h, concentration at which compound remains in solution, read-out: Solubility.
The mark [6] stands for this setting: protease-free PPIase assay, class symbols, read-out: CypA Ki.

Converted amounts (≈) assume the structure as drawn. Where two headings read alike, the source gives them in different places. Numbered stars: 1 amine (or outer) side, 2 acyl side, 3 side chain; on linkers, the order of the positions; unused ones are H or OH. Square brackets hold non-standard residues; d marks the D form. Peptide text beside a SMILES is read from it. X26 = C[C@H](C/C=C/c1cccc(N2CCOCC2)n1)[C@@H](O)[C@H](C(=O)[*:2])N(C)[*:1]; X10 = Cc1cccc(/C=C/C[C@@H](C)[C@@H](O)[C@H](C(=O)[*:2])N(C)[*:1])n1; X32 = CC(=O)N(CC[C@@H](C)[C@@H](O)[C@H](C(=O)[*:2])N(C)[*:1])C(C)C; X24 = C[C@H](CCN(C)CC1COCCO1)[C@@H](O)[C@H](C(=O)[*:2])N(C)[*:1]; X21 = C[C@H](CCN(C)C1CCOCC1)[C@@H](O)[C@H](C(=O)[*:2])N(C)[*:1]; X7 = C[C@H](CCN(C)Cc1ccnn1C)[C@@H](O)[C@H](C(=O)[*:2])N(C)[*:1]; X14 = C[C@H](CCCc1ncccn1)[C@@H](O)[C@H](C(=O)[*:2])N(C)[*:1]; d(aThr) = C[C@@H](O)[C@@H](N)C(=O)O; NMeL = CN[C@@H](CC(C)C)C(=O)O; dNMeL = CN[C@H](CC(C)C)C(=O)O; dNMeV = CN[C@@H](C(=O)O)C(C)C; Hiv = CC(C)[C@H](O)C(=O)O; dAbu = CC[C@@H](N)C(=O)O; Sar = CNCC(=O)O

Sequence of cyclophilin D (Cyp D) (P30405 30-207): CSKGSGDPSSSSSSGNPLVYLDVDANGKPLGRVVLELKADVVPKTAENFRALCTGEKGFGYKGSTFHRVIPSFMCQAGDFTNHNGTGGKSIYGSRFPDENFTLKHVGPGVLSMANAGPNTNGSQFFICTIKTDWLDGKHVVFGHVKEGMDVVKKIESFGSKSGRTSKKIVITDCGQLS
T1 sequence (P62937 whole entry): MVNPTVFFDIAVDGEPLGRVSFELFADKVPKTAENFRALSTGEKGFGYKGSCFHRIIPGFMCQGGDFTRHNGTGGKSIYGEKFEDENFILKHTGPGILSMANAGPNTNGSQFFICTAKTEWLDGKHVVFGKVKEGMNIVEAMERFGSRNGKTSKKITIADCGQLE

Turning to `CC(=O)N(CC[C@@H](C)[C@@H](O)[C@@H]1C(=O)N[C@H]([C@@H](C)O)C(=O)N(C)CC(=O)N(C)[C@@H](CC(C)C)C(=O)N[C@H](CC(C)C)C(=O)N(C)[C@H](CC(C)C)C(=O)N[C@H](C)C(=O)O[C@@H](C(C)C)C(=O)N(C)[C@H](CC(C)C)C(=O)N[C@H](CC(C)C)C(=O)N(C)[C@H](C(C)C)C(=O)N1C)C(C)C` [Example 38, cyclo-[(3R,4R,5S)-1-(acetyl-isopropyl-amino)-4-hydroxy-3-methyl-5-methylamino-hexanoic acid-Thr-Sar-MeLeu-Leu-MeLeu-Ala-D-Hiv-MeLeu-Leu-MeVal]] (cyclo([Hiv][dNMeL][dL][dNMeV][X32][d(aThr)][Sar][NMeL][dL][dNMeL][dA])), the Ki (in general, a dissociation constant, usually derived from enzyme kinetics or from competition with a known ligand) lay within 1 to 25 nM in series [1] and 25 to 100 nM in series [3]. Besides, the solubility (as a rule, the concentration that dissolves in the medium under given conditions) at 18 h in series [2] (pH 7.8) lay within 50 to 75 µM (≈ 66 to 99.1 µg/mL).

Turning to `CC(C)C[C@@H]1C(=O)N[C@H](CC(C)C)C(=O)N(C)[C@H](C(C)C)C(=O)N(C)[C@H]([C@H](O)[C@H](C)CCCc2ncccn2)C(=O)N[C@H]([C@@H](C)O)C(=O)N(C)CC(=O)N(C)[C@@H](CC(C)C)C(=O)N[C@H](CC(C)C)C(=O)N(C)[C@H](CC(C)C)C(=O)N[C@H](C)C(=O)O[C@@H](C(C)C)C(=O)N1C` [Example 16, cyclo-[(3R,4R,5S)-4-(hydroxy)-3-methyl-5-(methylamino)-1-(pyrimidin-2-yl)-heptanoic acid-Thr-Sar-MeLeu-Leu-MeLeu-Ala-D-Hiv-MeLeu-Leu-MeVal]] (cyclo([Hiv][dNMeL][dL][dNMeV][X14][d(aThr)][Sar][NMeL][dL][dNMeL][dA])), the Ki in series [1] and in series [3] was 1 to 25 nM in each case. In series [2] (pH 7.8), this molecule came in with a solubility at 18 h of 25 to 50 µM (≈ 32.8 to 65.7 µg/mL).

For the molecule `CC(C)C[C@@H]1C(=O)N[C@H](CC(C)C)C(=O)N(C)[C@H](C(C)C)C(=O)N(C)[C@H]([C@H](O)[C@H](C)CCN(C)Cc2ccnn2C)C(=O)N[C@H]([C@@H](C)O)C(=O)N(C)CC(=O)N(C)[C@@H](CC(C)C)C(=O)N[C@H](CC(C)C)C(=O)N(C)[C@H](CC(C)C)C(=O)N[C@H](C)C(=O)O[C@@H](C(C)C)C(=O)N1C` [Example 5, cyclo-{(3R,4R,5S)-4-(hydroxy)-3-methyl-5-(methylamino)-1-N-[methyl-(2-methyl-2H-pyrazol-3-ylmethyl)-amino]-hexanoic acid-Thr-Sar-MeLeu-Leu-MeLeu-Ala-D-Hiv-MeLeu-Leu-MeVal}] (cyclo([Hiv][dNMeL][dL][dNMeV][X7][d(aThr)][Sar][NMeL][dL][dNMeL][dA])), the inhibition constant Ki in series [1] (setting [4]) and in series [3] (setting [6]) was 1 to 25 nM throughout. Also, the solubility at 18 h in series [2] (setting [5]) lay within 50 to 75 µM (≈ 67.2 to 101 µg/mL).

For the molecule `CC(C)C[C@@H]1C(=O)N[C@H](CC(C)C)C(=O)N(C)[C@H](C(C)C)C(=O)N(C)[C@H]([C@H](O)[C@H](C)CCN(C)C2CCOCC2)C(=O)N[C@H]([C@@H](C)O)C(=O)N(C)CC(=O)N(C)[C@@H](CC(C)C)C(=O)N[C@H](CC(C)C)C(=O)N(C)[C@H](CC(C)C)C(=O)N[C@H](C)C(=O)O[C@@H](C(C)C)C(=O)N1C` [Example 12, cyclo-{(3R,4R,5S)-4-(hydroxy)-3-methyl-5-(methylamino)-1-N-(methyl-(tetrahydro-pyran-4-yl)-amino)-hexanoic acid-Thr-Sar-MeLeu-Leu-MeLeu-Ala-D-Hiv-MeLeu-Leu-MeVal}] (cyclo([Hiv][dNMeL][dL][dNMeV][X21][d(aThr)][Sar][NMeL][dL][dNMeL][dA])), the Ki in series [1] lay in the range of 1 to 25 nM; in series [3], 25 to 100 nM. The same molecule yielded a solubility at 18 h in series [2] (pH 7.8) of over 100 µM.

Turning to `CC(C)C[C@@H]1C(=O)N[C@H](CC(C)C)C(=O)N(C)[C@H](C(C)C)C(=O)N(C)[C@H]([C@H](O)[C@H](C)CCN(C)CC2COCCO2)C(=O)N[C@H]([C@@H](C)O)C(=O)N(C)CC(=O)N(C)[C@@H](CC(C)C)C(=O)N[C@H](CC(C)C)C(=O)N(C)[C@H](CC(C)C)C(=O)N[C@H](C)C(=O)O[C@@H](C(C)C)C(=O)N1C` (stereo partly drawn) [Example 8, cyclo-{(3R,4R,5S)-4-(hydroxy)-3-methyl-5-(methylamino)-1-N-([1,4]dioxan-2-ylmethyl-methyl-amino)-hexanoic acid-Thr-Sar-MeLeu-Leu-MeLeu-Ala-D-Hiv-MeLeu-Leu-MeVal}] (cyclo([Hiv][dNMeL][dL][dNMeV][X24][d(aThr)][Sar][NMeL][dL][dNMeL][dA])), the Ki in series [1] (setting [4]) was 1 to 25 nM; in series [3] (setting [6]) it was 25 to 100 nM. For the same molecule, the solubility at 18 h in series [2] (setting [5]) was over 100 µM.

Consider `CC[C@H]1NC(=O)[C@@H]([C@H](O)[C@H](C)C/C=C/c2cccc(C)n2)N(C)C(=O)[C@@H](C(C)C)N(C)C(=O)[C@@H](CC(C)C)NC(=O)[C@@H](CC(C)C)N(C)C(=O)[C@H](C(C)C)OC(=O)[C@@H](C)NC(=O)[C@@H](CC(C)C)N(C)C(=O)[C@@H](CC(C)C)NC(=O)[C@H](CC(C)C)N(C)C(=O)CN(C)C1=O` [Example 19, cyclo-[(3R,4R,5S)-4-(hydroxy)-3-methyl-5-(methylamino)-1-(6-methyl-pyridin-2-yl)-hept-1-enoic acid-Abu-Sar-MeLeu-Leu-MeLeu-Ala-D-Hiv-MeLeu-Leu-MeVal]] (cyclo([Hiv][dNMeL][dL][dNMeV][X10][dAbu][Sar][NMeL][dL][dNMeL][dA])), for which the Ki in series [1] and in series [3] was 1 to 25 nM in each case. This molecule showed a solubility at 18 h in series [2] (pH 7.8) of 10 to 25 µM (≈ 13.1 to 32.7 µg/mL).

For `CC(C)C[C@@H]1C(=O)N[C@H](CC(C)C)C(=O)N(C)[C@H](C(C)C)C(=O)N(C)[C@H]([C@H](O)[C@H](C)C/C=C/c2cccc(N3CCOCC3)n2)C(=O)N[C@H]([C@@H](C)O)C(=O)N(C)CC(=O)N(C)[C@@H](CC(C)C)C(=O)N[C@H](CC(C)C)C(=O)N(C)[C@H](CC(C)C)C(=O)N[C@H](C)C(=O)O[C@@H](C(C)C)C(=O)N1C` [Example 18, cyclo-{(3R,4R,5S)-4-(hydroxy)-3-methyl-5-(methylamino)-1-(6-morpholin-4-yl-pyridin-2-yl)-hept-1-enoic acid-Thr-Sar-MeLeu-Leu-MeLeu-Ala-D-Hiv-MeLeu-Leu-MeVal}] (cyclo([Hiv][dNMeL][dL][dNMeV][X26][d(aThr)][Sar][NMeL][dL][dNMeL][dA])), the Ki in series [1] (setting [4]) and in series [3] (setting [6]) was 1 to 25 nM in each case. Besides, the solubility at 18 h in series [2] (setting [5]) is 10 to 25 µM (≈ 14 to 34.9 µg/mL).
